Patent publication US8778958B2, “Synthesis of metabolically stable agents for alcohol and drug abuse” (priority 2008, dated 2014)
Read-outs that look alike come from different tables or passages of the source.

Legend:
Assay in all cases: biochemical
Assay type in all cases: binding
μ-opioid receptor = biological target: T1, μ-opioid receptor (Homo sapiens, UniProt P35372)
T1 construct: expressed in transfected cells; host or cells: CHO cells

δ-opioid receptor = biological target: T2, δ-opioid receptor (Homo sapiens, UniProt P41143); conditions: Table 1b; for Ki: N-oxides
T2 construct: expressed in transfected cells; host or cells: CHO cells

κ-opioid receptor = biological target: T3, κ-opioid receptor (Homo sapiens, UniProt P41145); conditions: read-out: Ki (nM) ± SEM, κ
T3 construct: expressed in transfected cells; host or cells: CHO cells

[1] = Ki (nM) ± SEM, μ, Table 1b, N-oxides

T1 sequence (P35372 whole entry): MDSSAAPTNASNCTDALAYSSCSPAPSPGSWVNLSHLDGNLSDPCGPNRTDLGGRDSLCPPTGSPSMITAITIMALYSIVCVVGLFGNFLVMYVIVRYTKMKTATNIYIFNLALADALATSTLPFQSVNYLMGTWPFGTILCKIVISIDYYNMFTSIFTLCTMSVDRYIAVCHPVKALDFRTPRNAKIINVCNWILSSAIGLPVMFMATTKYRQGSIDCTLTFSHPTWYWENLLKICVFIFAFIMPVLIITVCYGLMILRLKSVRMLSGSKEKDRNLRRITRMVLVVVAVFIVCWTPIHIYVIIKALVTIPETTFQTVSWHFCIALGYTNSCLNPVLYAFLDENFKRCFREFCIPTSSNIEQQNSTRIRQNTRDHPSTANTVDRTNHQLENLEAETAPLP
T2 sequence (P41143 whole entry): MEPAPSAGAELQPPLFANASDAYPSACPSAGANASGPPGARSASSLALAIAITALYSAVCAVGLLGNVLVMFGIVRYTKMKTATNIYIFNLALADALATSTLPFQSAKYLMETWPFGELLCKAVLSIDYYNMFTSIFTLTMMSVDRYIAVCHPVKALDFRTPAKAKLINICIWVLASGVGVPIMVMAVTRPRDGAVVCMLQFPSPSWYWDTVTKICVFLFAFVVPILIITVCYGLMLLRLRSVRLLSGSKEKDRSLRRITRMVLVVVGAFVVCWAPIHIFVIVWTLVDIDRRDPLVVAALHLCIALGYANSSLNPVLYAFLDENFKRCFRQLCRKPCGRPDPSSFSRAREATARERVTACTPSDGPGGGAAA
T3 sequence (P41145 whole entry): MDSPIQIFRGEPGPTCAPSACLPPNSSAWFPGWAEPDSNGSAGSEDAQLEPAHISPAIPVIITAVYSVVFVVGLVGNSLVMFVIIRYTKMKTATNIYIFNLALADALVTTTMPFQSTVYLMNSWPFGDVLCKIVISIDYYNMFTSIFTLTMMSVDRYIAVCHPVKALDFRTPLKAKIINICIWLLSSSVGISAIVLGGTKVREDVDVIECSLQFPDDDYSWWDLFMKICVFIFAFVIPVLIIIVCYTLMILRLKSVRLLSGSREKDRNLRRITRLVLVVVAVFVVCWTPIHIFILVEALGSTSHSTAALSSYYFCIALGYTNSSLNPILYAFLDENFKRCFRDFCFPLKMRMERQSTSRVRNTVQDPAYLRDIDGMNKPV

Row | Compound | Ki (μ-opioid receptor; [1]) [nM] | Ki (δ-opioid receptor; Ki (nM) ± SEM, δ) [nM] | Ki (κ-opioid receptor) [nM] | Inhibition of agonist binding, δ (δ-opioid receptor; concentration not given) [% inh] | Ki (μ-opioid receptor; read-out: Ki (nM) ± SEM, μ) [nM] | Ki (δ-opioid receptor; read-out: Ki (nM) ± SEM, δ) [nM] | Ki (κ-opioid receptor; Table 1b, N-oxides) [nM]
1 | COc1ccc(C(=O)N[C@H]2CC[C@@]3(O)[C@H]4Cc5ccc(O)c6c5[C@@]3(CC[N+]4([O-])CC3CC3)[C@H]2O6)cc1OC (stereo partly drawn) [Compound 41, 17-Cyclopropylmethyl-3,14β-dihydroxy-4,5α-epoxy-6α-[(3′,4′-dimethoxy)benzamido]morphinan-N-oxide] | 16 ± 2.7 | 51 ± 2.45 | 30 ± 3 | – | – | – | –
2 | COc1ccc(CC(=O)N[C@@H]2CC[C@@]3(O)[C@H]4Cc5ccc(O)c6c5[C@@]3(CC[N+]4([O-])CC3CC3)[C@H]2O6)cc1 (stereo partly drawn) [Compound 39, 17-Cyclopropylmethyl-3,14β-dihydroxy-4,5α-epoxy-6β-[(4′-methoxy)phenylacetamido]morphinan N-oxide] | 78 ± 20 | 472 ± 78 | 10 ± 1 | – | – | – | –
3 | Cc1ccc(C(=O)N[C@@H]2CC[C@@]3(O)[C@H]4Cc5ccc(O)c6c5[C@@]3(CC[N+]4(C)[O-])[C@H]2O6)cc1 (stereo partly drawn) [Compound 55, 17-Methyl-3,14β-dihydroxy-4,5α-epoxy-6β-[(4′-methyl)benzamido]morphinan-N-oxide] | 244 ± 8.2 | – | 1190 ± 134 | <50 | – | – | –
4 | O=C(Cc1cccs1)N[C@@H]1CC[C@@]2(O)[C@H]3Cc4ccc(O)c5c4[C@@]2(CC[N+]3([O-])CC2CC2)[C@H]1O5 (stereo partly drawn) [Compound 25, 17-Cyclopropylmethyl-3,14β-dihydroxy-4,5α-epoxy-6β-[(thiophen-2′-yl)acetamido]morphinan-N-oxide] | – | – | – | – | 34.8 ± 2.08 | 752 ± 8.91 | 13 ± 1
5 | 17-Cyclopropylmethyl-3,14-β-dihydroxy-4,5α-epoxy-6α-N-methyl-(3′,4′-dichloro)morphinan-N-oxide [Compound 51] | – | – | – | – | 7.3 ± 0.2 | 120 ± 5 | 2 ± 0.09
6 | CN(C(=O)c1ccc(C(C)(C)C)cc1)[C@H]1CC[C@@]2(O)[C@H]3Cc4ccc(O)c5c4[C@@]2(CC[N+]3([O-])CC2CC2)[C@H]1O5 (stereo partly drawn) [Compound 48] | – | – | – | – | 26 ± 2 | 148 ± 10 | 14 ± 1
7 | COc1cccc(C(=O)N[C@@H]2CC[C@@]3(O)[C@H]4Cc5ccc(O)c6c5[C@@]3(CC[N+]4([O-])CC3CC3)[C@H]2O6)c1 (stereo partly drawn) [Compound 30, 17-Cyclopropylmethyl-3,14β-dihydroxy-4,5α-epoxy-6β-[(3′-methoxy)benzamido]morphinan-N-oxide] | 16 ± 1 | 444 ± 39.1 | 9.7 ± 0.95 | – | – | – | –
8 | O=C(NC1CCC2(O)C3Cc4ccc(O)c5c4C2(CC[N+]3([O-])CC2CC2)C1O5)c1ccc(Cl)c(F)c1 (stereo not drawn) [Compound 59, 17-Cyclopropylmethyl-3,14β-dihydroxy-4,5α-epoxy-6β-[(4′-chloro-3′-fluoro)benzamido]morphinan-N-oxide] | 14.1 ± 0.5 | 390 ± 18 | 2.5 ± 0.09 | – | – | – | –
9 | COc1ccc(C(=O)N[C@@H]2CC[C@@]3(O)[C@H]4Cc5ccc(O)c6c5[C@@]3(CC[N+]4([O-])CC3CC3)[C@H]2O6)cc1OC (stereo partly drawn) [Compound 29, 17-Cyclopropylmethyl-3,14β-dihydroxy-4,5α-epoxy-6β-[(3′,4′-dimethoxy)benzamido]morphinan-N-oxide] | 37 ± 2 | 621 ± 16.2 | 71 ± 4.87 | – | – | – | –
10 | CN(C(=O)c1ccc(I)cc1)[C@H]1CC[C@@]2(O)[C@H]3Cc4ccc(O)c5c4[C@@]2(CC[N+]3([O-])CC2CC2)[C@H]1O5 (stereo partly drawn) [Compound 47, 17-Cyclopropylmethyl-3,14-β-dihydroxy-4,5α-epoxy-6α-N-methyl-[(4′-iodo)benzamido]morphinan-N-oxide] | 27.6 ± 0.8 | 290 ± 17 | 5.9 ± 0.4 | – | – | – | –
11 | O=C(N[C@@H]1CC[C@@]2(O)[C@H]3Cc4ccc(O)c5c4[C@@]2(CC[N+]3([O-])CC2CC2)[C@H]1O5)c1ccc([N+](=O)[O-])cc1 (stereo partly drawn) [Compound 40, 17-Cyclopropylmethyl-3,14β-dihydroxy-4,5α-epoxy-6β-[(4′-nitro)benzamido]morphinan-N-oxide] | 38 ± 6.5 | 590 ± 590 | 6.7 ± 0.4 | – | – | – | –
12 | O=C(N[C@@H]1CC[C@@]2(O)[C@H]3Cc4ccc(O)c5c4[C@@]2(CC[N+]3([O-])CC2CC2)[C@H]1O5)c1ccccc1 (stereo partly drawn) [Compound 32, 17-Cyclopropylmethyl-3,14β-dihydroxy-4,5α-epoxy-6β-(benzamido)morphinan-N-oxide] | 28 ± 2 | 813 ± 34 | 8.5 ± 0.92 | – | – | – | –
13 | CN(C(=O)c1ccc(C(C)(C)C)cc1)[C@@H]1CC[C@@]2(O)[C@H]3Cc4ccc(O)c5c4[C@@]2(CC[N+]3([O-])CC2CC2)[C@H]1O5 (stereo partly drawn) [Compound 27, 17-Cyclopropylmethyl-3,14β-dihydroxy-4,5α-epoxy-6β-N-methyl[(4′-tert-butyl)benzamido]morphinan-N-oxide] | – | – | – | – | 714 ± 66 | 535 ± 43.8 | 72 ± 12.6
14 | CN(C(=O)c1ccc(Br)cc1)[C@H]1CC[C@@]2(O)[C@H]3Cc4ccc(O)c5c4[C@@]2(CC[N+]3([O-])CC2CC2)[C@H]1O5 (stereo partly drawn) [Compound 26, 17-Cyclopropylmethyl-3,14β-dihydroxy-4,5α-epoxy-6α-N-methyl[(4′-bromo)benzamido]morphinan-N-oxide] | 5.8 ± 0.21 | 51 ± 5.8 | 2.41 ± 0.19 | – | – | – | –
15 | CC(C)(C)c1ccc(C(=O)N[C@@H]2CC[C@@]3(O)[C@H]4Cc5ccc(O)c6c5[C@@]3(CC[N+]4([O-])CC3CC3)[C@H]2O6)cc1 (stereo partly drawn) [Compound 23, 17-Cyclopropylmethyl-3,14β-dihydroxy-4,5α-epoxy-6β-[(4′-tert-butyl)benzamido]morphinan-N-oxide] | 1.7 ± 0.07 | 25 ± 2.38 | 1.9 ± 0.14 | – | – | – | –
16 | 17-Cyclopropylmethyl-3,14β-dihydroxy-4,5α-epoxy-6α-(6-acetamido-2,3,4,6-tetra-O-benzyl-D-pyranose)morphinan-N-oxide [Compound 36] | – | – | – | – | 308 ± 13 | 1860 ± 144 | 18 ± 1
17 | O=C(N[C@@H]1CC[C@@]2(O)[C@H]3Cc4ccc(O)c5c4[C@@]2(CC[N+]3([O-])CC2CC2)[C@H]1O5)c1ccc(Cl)cc1 (stereo partly drawn) [Compound 35, 17-Cyclopropylmethyl-3,14β-dihydroxy-4,5α-epoxy-6β-[(4′-chloro)benzamido]morphinan-N-oxide] | 4.7 ± 0.12 | 219 ± 7.97 | 1.8 ± 0.1 | – | – | – | –
18 | O=C(N[C@@H]1CC[C@@]2(O)[C@H]3Cc4ccc(O)c5c4[C@@]2(CC[N+]3([O-])CC2CC2)[C@H]1O5)c1cccc(O)c1 (stereo partly drawn) [Compound 34, 17-Cyclopropylmethyl-3,14β-dihydroxy-4,5α-epoxy-6β-[(3′-hydroxy)benzamido]morphinan-N-oxide] | 34 ± 2 | 1170 ± 101 | 49 ± 4 | – | – | – | –
19 | O=C(N[C@@H]1CC[C@@]2(O)[C@H]3Cc4ccc(O)c5c4[C@@]2(CC[N+]3([O-])CC2CC2)[C@H]1O5)c1ccc(Cl)c(Cl)c1 (stereo partly drawn) [Compound 43, 17-Cyclopropylmethyl-3,14β-dihydroxy-4,5α-epoxy-6β-[(3′,4′-dichloro)benzamido]morphinan-N-oxide] | 3.6 ± 0.43 | 212 ± 11 | 2 ± 0.2 | – | – | – | –
20 | COC(=O)c1ccc(C(=O)N[C@@H]2CC[C@@]3(O)[C@H]4Cc5ccc(O)c6c5[C@@]3(CC[N+]4([O-])CC3CC3)[C@H]2O6)cc1 (stereo partly drawn) [Compound 38, 17-Cyclopropylmethyl-3,14β-dihydroxy-4,5α-epoxy-6β-[(4′-carbomethoxy)benzamido]morphinan-N-oxide] | 30 ± 2.1 | 1390 ± 279 | 51 ± 6 | – | – | – | –
21 | O=C(N[C@@H]1CC[C@@]2(O)[C@H]3Cc4ccc(O)c5c4[C@@]2(CC[N+]3([O-])CC2CC2)[C@H]1O5)c1ccc(C(F)(F)F)cc1 (stereo partly drawn) [Compound 22, 17-Cyclopropylmethyl-3,14β-dihydroxy-4,5α-epoxy-6β-[(4′-trifluoromethyl)benzamido]morphinan-N-oxide] | 1.4 ± 0.03 | 117 ± 5.18 | 1.9 ± 0.11 | – | – | – | –
22 | O=C(N[C@H]1CC[C@@]2(O)[C@H]3Cc4ccc(O)c5c4[C@@]2(CC[N+]3([O-])CC2CC2)[C@H]1O5)c1ccccc1 (stereo partly drawn) [Compound 37, 17-Cyclopropylmethyl-3,14β-dihydroxy-4,5α-epoxy-6α-(benzamido)morphinan-N-oxide] | 37 ± 2.6 | 822 ± 124 | 64 ± 10 | – | – | – | –
23 | COc1cccc(C(=O)N[C@@H]2CC[C@@]3(O)[C@H]4Cc5ccc(O)c6c5[C@@]3(CC[N+]4([O-])CC3CC3)[C@H]2O6)c1 (stereo partly drawn) [Compound 42, 17-Cyclopropylmethyl-3,14β-dihydroxy-4,5α-epoxy-6β-[(3′-methoxy)benzamido]morphinan-N-oxide] | 49 ± 8.6 | 1050 ± 38 | 16 ± 2 | – | – | – | –
24 | O=C(Cc1ccccc1)N[C@@H]1CC[C@@]2(O)[C@H]3Cc4ccc(O)c5c4[C@@]2(CC[N+]3([O-])CC2CC2)[C@H]1O5 (stereo partly drawn) [Compound 33, 17-Cyclopropylmethyl-3,14β-dihydroxy-4,5α-epoxy-6β-(phenylacetamido)morphinan-N-oxide] | 43 ± 3 | 1400 ± 40.5 | 47 ± 4 | – | – | – | –
25 | O=C(NC1CCC2(O)C3Cc4ccc(O)c5c4C2(CC[N+]3([O-])CC2CC2)C1O5)c1ccc(C(F)(F)F)c(F)c1 (stereo not drawn) [Compound 56, 17-Cyclopropylmethyl-3,14β-dihydroxy-4,5α-epoxy-6β-[(3′-fluoro-4′-trifluoromethyl)benzamido]morphinan-N-oxide] | 8.3 ± 0.3 | 352 ± 10 | 3.8 ± 0.3 | – | – | – | –
26 | O=C(N[C@@H]1CC[C@@]2(O)[C@H]3Cc4ccc(O)c5c4[C@@]2(CC[N+]3([O-])CC2CC2)[C@H]1O5)c1ccc(Br)cc1 (stereo partly drawn) [Compound 63, 17-Cyclopropylmethyl-3,14β-dihydroxy-4,5α-epoxy-6β-[(4′-bromo)benzamido]morphinan-N-oxide] | 7 ± 0.1 | 246 ± 15 | 6.3 ± 0.6 | – | – | – | –
27 | Cc1ccc(C(=O)N[C@@H]2CC[C@@]3(O)[C@H]4Cc5ccc(O)c6c5[C@@]3(CC[N+]4([O-])CC3CC3)[C@H]2O6)cc1 (stereo partly drawn) [Compound 21, 17-Cyclopropylmethyl-3,14β-dihydroxy-4,5α-epoxy-6β-[(4′-methyl)benzamido]morphinan-N-oxide] | 5.5 ± 0.2 | 342 ± 12.6 | 3.1 ± 0.16 | – | – | – | –
28 | NC(=NO)c1cccc(C(=O)NC2CCC3(O)C4Cc5ccc(O)c6c5C3(CC[N+]4([O-])CC3CC3)C2O6)c1 (stereo not drawn) [Compound 52] | 114 ± 3.3 | 1220 ± 45 | 26 ± 1.81 | – | – | – | –
